Entries after “also recorded” stand apart in the source; their conditions may differ. Residues, ends and D or L forms follow the SMILES beside them.
Legend:
[1] = system: B1 peptide (first extracellular loop of LMP1); assay: ITC of B1/B1.12 interaction; assay type: binding, Epstein-Barr virus (EBV); settings: 30 °C, NaHCO3 buffer 0.1 M pH 5.7
Experimental: For ITC, analysis was performed at 30 °C using an isothermal titration calorimeter (VP-ITC, LLC Microcal Inc., Northampton, MA, USA). Peptides were suspended in NaHCO3 buffer (0.1 M, pH 5.7, after 2 hours of sample equilibration) and the reference cell was filled with the same buffer. B1 peptide (0.2 mM) was placed into 250 μL syringe and 1200 μL of B1.12 peptide (0.01 mM) was placed in the titration cell. The peptide solution was injected into the stirred sample cell containing B1.12 peptide in >20 injections (2 μL per injection) by a computer-controlled pump. The injection lasted 10 seconds with an interval of 120 seconds between successive injections. Heat released with each injection was measured (Differential Potential in µCal/sec) by the calorimeter in dynamic correction mode. Control experiments were performed by tittering the B1 peptide into the buffer solution at the same pH and concentrations with and without the B1 peptide, in order to discriminate the interaction process against the dilution of B1 and its possible self-association, respectively.

HeLa/LMP1 cells = assay: Competitive inhibition of phage B1.12 binding to HeLa/LMP1 cells; assay type: cell-based; settings: peptide 100 µM, 37 °C 1 hour, triplicate mean
Experimental: Binding of the B1.12 peptide to its target B1 and to HeLa/LMP1 cells was evaluated by a competitive binding assay. For competition on B1 as a target, the B1.12 peptide or the unrelated control peptide were incubated at concentrations of 1, 5, 10, 25, 50 and 100 µM with B1 peptide (100 µl of a solution of 1 mg/mL in NaHCO3) at room temperature for 1 hour. Then the B1.12 phage (2 × 10^10 pfu) was added to each well and incubated for 1 hour. After washing, the bound phage was detected by the anti-M13 antibody as described previously. For the competition test on HeLa cells expressing or not the viral oncoprotein LMP1, cells were seeded into 96-well plates (10^4 cells/well), washed twice in PBS, and fixed with 4% paraformaldehyde for 30 minutes at room temperature. Synthetic peptides at concentrations of 50, 75, 100 and 200 µM were incubated with the cells at 37 °C for 1 hour and the experiment was carried out as described above. All experiments were done in triplicate and the mean values of OD were used to calculate the rate of competitive inhibition according to the following formula: inhibition ratio = (OD control − OD phage)/OD control × 100, where OD control and OD phage represent the OD450 nm values of phage binding on cells incubated with PBS and with the peptide, respectively.

C666.1 cells = assay: MTT cell viability, C666.1; assay type: cell-based; settings: increasing concentration to 200 µM, 48 h
Experimental: Three cell lines were used: C666-1 which is a native EBV-infected NPC-derived cell line constitutively expressing LMP1, HeLa cells transfected with native vector (Gpt) or harboring the cDNA encoding LMP1, and HT-29 which is a human colon cancer cell line All cells were maintained in RPMI medium 1640 supplemented with 5% (V/V) FBS (Gibco), 4 µg/mL Gentamycine and 2 mM L-glutamine at 37 °C in a humidified atmosphere of 5% CO2. These cell lines were kindly provided by Pr P. Busson (IGR-France).
Cells were plated into 96-well plates until 80% confluent and then treated with different concentrations of B1.12 peptide (100, 200, 300 and 400 µM). After 48 hours of incubation, 20 μL MTT (5 mg/mL) were added to each well. After 4 hours, 100 μL dimethyl sulfoxide (DMSO) was added to each well, and absorbance was measured at […] using a Varioskan™ Flash Multimode Reader (Thermofisher Scientific). The percentage of cell viability was calculated using this formula:(OD590 nm of treated cells/OD590 nm of untreated cells) × 100.

pAkt = assay: Western blot pAkt in C666.1 cells; assay type: cell-based; settings: 100 µM peptide, 24 hours, C666.1, Western blot, n = 4 biological replicates
Experimental: (§1) Cells were cultured at 80% confluency and then incubated with 100 µM B1.12 peptide for 24 hours. Subsequently, cells were washed twice with cold PBS and scrapped in ice-cold RIPA buffer (50 mM Tris pH 7.4, 5 mM EDTA pH 8.0, 150 mM NaCl, 0.1% SDS, 0.5% NaDOC, 0.5% NP 40) supplemented with 5 mM PMSF. After 30 minutes on ice, cells were sonicated, and cell debris were removed by centrifugation at 15,000 rpm at 4 °C for 15 minutes. Proteins were quantified using the Bradford Protein Assay (Bio-Rad) according to the manufacturer’s specifications. Thirty μg of total proteins were separated on 10% SDS–PAGE and transferred to PVDF membrane (Amersham Hybond-P). The membranes were blocked at 4 °C overnight with PBS 0.1% Tween 20 containing 5 mg/mL skimmed milk, prior to be incubated with pAkt (Biotechne, diluted 1/2500) pRelA536 (Biotechne, diluted 1/1000), and Tubulin (Thermofisher, diluted 1/1000) antibodies for 2 hours at room temperature, followed by incubation with anti-rabbit or anti-mouse conjugated to horseradish peroxidase at room temperature for 1 hour. The target protein band was visualized using the enhanced chemiluminescence detection system (Amersham ECL Prime Western Blotting Detection Reagent) and luminescent bands were visualized using the VERSADOC imaging system. Band densities were assessed by Image-J software.

pNFκb (pRelA536) = assay: Western blot pNFκb (pRelA536) in C666.1 cells; assay type: cell-based; settings: 100 µM peptide, 24 hours, C666.1, Western blot, n = 4 biological replicates
Experimental: as §1

A20 (TNFAIP3) = assay: RT-qPCR A20 expression in C666.1 cells; assay type: cell-based; settings: B1.12-treated versus untreated C666.1, RT-qPCR normalised to GAPDH, n = 3 biological replicates
From the text: Total RNA from C666.1 cells treated or not with B1.12 and control peptides was extracted using TRIzol reagent. cDNA was synthetized using the reverse transcription kit (Invitrogen), and served as a template for detecting A20 gene expression by Real-time quantitative PCR using SYBR Premix Ex Taq (Tli RNase H Plus, Takara) and using CFX96 (Biorad). The housekeeping gene GAPDH was used as an internal control to normalize the expression levels of the gene. The primers used for the amplification of the A20 gene are as follows: forward: 5′-[…]-3′, and reverse: 5′-GGCGAAATTGGAACCTGA TTCCAAACTT-3′. Relative quantification of mRNA expression was performed by the comparative 2−ΔΔct method to calculate the difference between amplifications of A20 and GAPDH. […]

CC(C)C[C@H](NC(=O)[C@H](CC(=O)O)NC(=O)[C@H](CC(C)C)NC(=O)[C@@H]1CCCN1C(=O)[C@H](CS)NC(=O)[C@H](C)N)C(=O)N[C@@H](CCCNC(=N)N)C(=O)N[C@@H](CO)C(=O)N1CCC[C@H]1C(=O)N[C@@H](CS)C(=O)NCC(N)=O [B1.12] (H-ACPLDLRSPCG-NH2; N-terminus and C-terminus assumed)
number of injections after which exothermic binding reaction ceases ([1]; 2 μL injections of B1 0.2 mM into B1.12 0.01 mM): nineteen
binding to target B1 (ITC) ([1]; B1 0.2 mM injected into B1.12 0.01 mM): ITC profile confirmed the binding of the B1.12 peptide to its target B1 peptide
inhibition ratio (HeLa/LMP1 cells): 45%
cell viability (in words) (C666.1 cells): gradually decreases with increasing peptide concentration
pAkt expression (pAkt): low in B1.12-treated-C666.1 compared to those in the untreated or treated with control peptide; also recorded: decreased in B1.12-treated-C666.1 compared to those in the untreated or treated with control peptide more markedly for pAkt
pNFκb (pRelA536) expression (pNFκb (pRelA536)): a weak change; also recorded: decreased in B1.12-treated-C666.1 compared to those in the untreated or treated with control peptide
A20 expression level (A20 (TNFAIP3)): the expression of A20 decreased compared to untreated cells; also recorded: the A20 level decreased in the C666.1 cells after B1.12 treatment
